What was measured:
SKG-IIIa = assay: cells; assay type: functional, cell-based; details: Homo sapiens;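 further: cell growth inhibition, read out with a cell viability assay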
Description: SANGER: Inhibition of human SKG-IIIa cell growth in a cell viability assay.

A-427 = assay: cells; assay type: functional, cell-based; details: Homo sapiens;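 further: growth inhibition of human A-427 cells, read out by a cell viability assay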
Description: SANGER: Inhibition of human A427 cell growth in a cell viability assay.

A673 = assay: cells; assay type: functional, cell-based; details: Homo sapiens;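 further: growth inhibition of human A673 cells, read out through a cell viability assay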
Description: SANGER: Inhibition of human A673 cell growth in a cell viability assay.

HTC-C3 = assay: cells; assay type: functional, cell-based; details: Homo sapiens;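 further: inhibition of cell growth, read out with a cell viability assay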
Description: SANGER: Inhibition of human HTC-C3 cell growth in a cell viability assay.

OE33 = assay: cells; assay type: functional, cell-based; details: Homo sapiens;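 further: growth inhibition of human OE33 cells, measured by a cell viability assay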
Description: SANGER: Inhibition of human OE33 cell growth in a cell viability assay.

HCT-116 = assay: cells; assay type: functional, cell-based; details: Homo sapiens
Description: SANGER: Inhibition of human HCT-116 cell growth in a cell viability assay.

SN12C = assay: cells; assay type: functional, cell-based; details: Homo sapiens;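 further: growth inhibition of human SN12C cells, measured by a cell viability assay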
Description: SANGER: Inhibition of human SN12C cell growth in a cell viability assay.

DU-145 = assay: cells; assay type: functional, cell-based; details: Homo sapiens
Description: SANGER: Inhibition of human DU-145 cell growth in a cell viability assay.

SW48 = assay: cells; assay type: functional, cell-based; details: Homo sapiens;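 further: growth inhibition of SW48 cells, read out with a cell viability assay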
Description: SANGER: Inhibition of human SW48 cell growth in a cell viability assay.

SW1783 = assay: cells; assay type: functional, cell-based; details: Homo sapiens
Description: SANGER: Inhibition of human SW1783 cell growth in a cell viability assay.

RPMI-7951 = assay: cells; assay type: functional, cell-based; details: Homo sapiens
Description: SANGER: Inhibition of human RPMI-7951 cell growth in a cell viability assay.

SIG-M5 = assay: cells; assay type: functional, cell-based, Homo sapiens; details: Homo sapiens, SIG-M5;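 further: cell viability assay read-out, measuring how strongly growth of cultured human SIG-M5 cells is inhibited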
Description: SANGER: Inhibition of human SIG-M5 cell growth in a cell viability assay.

KMOE-2 = assay: cells; assay type: functional, cell-based, Homo sapiens; details: Homo sapiens, KMOE-2;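 further: growth inhibition of human KMOE-2 cells, read out with a cell viability assay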
Description: SANGER: Inhibition of human KMOE-2 cell growth in a cell viability assay.

MKN-28 = assay: cells; assay type: functional, cell-based; details: Homo sapiens;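 further: cell viability assay read-out, IC50 reflects suppression of growth of human MKN-28 cells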
Description: SANGER: Inhibition of human MKN28 cell growth in a cell viability assay.

UO-31 = assay: cells; assay type: functional, cell-based; details: Homo sapiens
Description: SANGER: Inhibition of human U031 cell growth in a cell viability assay.

Detroit 562 = assay: cells; assay type: functional, cell-based; details: Homo sapiens;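 further: growth inhibition of human Detroit 562 cells, read out by a cell viability assay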
Description: SANGER: Inhibition of human Detroit562 cell growth in a cell viability assay.

EFO-27 = assay: cells; assay type: functional, cell-based; details: Homo sapiens;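 further: growth inhibition of EFO-27 cells, read out with a cell viability assay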
Description: SANGER: Inhibition of human EFO-27 cell growth in a cell viability assay.

HSC-4 = assay: cells; assay type: functional, cell-based; details: Homo sapiens;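 further: growth inhibition of human HSC-4 cells, read out with a cell viability assay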
Description: SANGER: Inhibition of human HSC-4 cell growth in a cell viability assay.

LN-405 = assay: cells; assay type: functional, cell-based; details: Homo sapiens
Description: SANGER: Inhibition of human LN-405 cell growth in a cell viability assay.

RL95-2 = assay: cells; assay type: functional, cell-based, Homo sapiens; details: Homo sapiens, RL95-2;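 further: RL95-2 growth inhibition determined through a cell viability readout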
Description: SANGER: Inhibition of human RL95-2 cell growth in a cell viability assay.

ESS-1 = assay: cells; assay type: functional, cell-based; details: Homo sapiens;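 further: growth inhibition of human ESS-1 cells, read out by a cell viability assay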
Description: SANGER: Inhibition of human ESS-1 cell growth in a cell viability assay.

NCI-H510A = assay: cells; assay type: functional, cell-based, Homo sapiens; details: Homo sapiens, NCI-H510A;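 further: growth inhibition of NCI-H510A cells, read out with a cell viability assay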
Description: SANGER: Inhibition of human NCI-H510A cell growth in a cell viability assay.

NCI-H596 = assay: cells; assay type: functional, cell-based; details: Homo sapiens;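 further: growth inhibition of NCI-H596 cells, read out with a cell viability assay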
Description: SANGER: Inhibition of human NCI-H596 cell growth in a cell viability assay.

KOSC-2 = assay: cells; assay type: functional, cell-based; details: Homo sapiens;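 further: growth inhibition of KOSC-2 cells, read out by a cell viability assay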
Description: SANGER: Inhibition of human KOSC-2 cell growth in a cell viability assay.

LOUCY = assay: cells; assay type: functional, cell-based, Homo sapiens; details: Homo sapiens, LOUCY;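 further: growth inhibition of human LOUCY cells, read out with a cell viability assay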
Description: SANGER: Inhibition of human LOUCY cell growth in a cell viability assay.

MDA-MB-453 = assay: cells; assay type: functional, cell-based; details: Homo sapiens
Description: SANGER: Inhibition of human MDA-MB-453 cell growth in a cell viability assay.

IGR-1 = assay: cells; assay type: functional, cell-based; details: Homo sapiens;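 further: growth inhibition of human IGR-1 cells, read out with a cell viability assay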
Description: SANGER: Inhibition of human IGR-1 cell growth in a cell viability assay.

LCLC-103H cell line = assay: cells; assay type: functional, cell-based; details: Homo sapiens
Description: SANGER: Inhibition of human LCLC-103H cell growth in a cell viability assay.

MFE-280 = assay: cells; assay type: functional, cell-based; details: Homo sapiens;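 further: growth inhibition of MFE-280 cells, determined with a cell viability readout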
Description: SANGER: Inhibition of human MFE-280 cell growth in a cell viability assay.

MCF7 = assay: cells; assay type: functional, cell-based; details: Homo sapiens;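 further: growth inhibition of human MCF7 cells, read out with a cell viability assay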
Description: SANGER: Inhibition of human MCF7 cell growth in a cell viability assay.

HN = assay: cells; assay type: functional, cell-based; details: Homo sapiens
Description: SANGER: Inhibition of human HN cell growth in a cell viability assay.

LCLC-97TM1 = assay: cells; assay type: functional, cell-based; details: Homo sapiens;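 further: cell viability assay measuring growth inhibition of human LCLC-97TM1 cells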
Description: SANGER: Inhibition of human LCLC-97TM1 cell growth in a cell viability assay.

MHH-CALL-2 = assay: cells; assay type: functional, cell-based, Homo sapiens; details: Homo sapiens, MHH-CALL-2;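 further: growth inhibition of the cell line, read out in a cell viability assay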
Description: SANGER: Inhibition of human MHH-CALL-2 cell growth in a cell viability assay.

CWR22R = assay: cells; assay type: functional, cell-based; details: Homo sapiens, 22Rv1;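 further: growth inhibition of 22Rv1 cells, read out with a cell viability assay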
Description: SANGER: Inhibition of human 22RV1 cell growth in a cell viability assay.

NCI-H2342 = assay: cells; assay type: functional, cell-based; details: Homo sapiens;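 further: growth inhibition of the cancer cell line, determined with a cell viability assay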
Description: SANGER: Inhibition of human NCI-H2342 cell growth in a cell viability assay.

23132-87 = assay: cells; assay type: functional, cell-based; details: Homo sapiens
Description: SANGER: Inhibition of human 23132-87 cell growth in a cell viability assay.

CESS = assay: SANGER: Inhibition of human CESS cell growth in a cell viability assay.; assay type: functional, cell-based; details: Homo sapiens, CESS
EGI-1 = assay: cells; assay type: functional, cell-based; details: Homo sapiens;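 further: cell viability readout used to gauge growth inhibition of EGI-1 cells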
Description: SANGER: Inhibition of human EGI-1 cell growth in a cell viability assay.

UACC-893 = assay: cells; assay type: functional, cell-based; details: Homo sapiens
Description: SANGER: Inhibition of human UACC-893 cell growth in a cell viability assay.

MEL-HO = assay: cells; assay type: functional, cell-based; details: Homo sapiens
Description: SANGER: Inhibition of human MEL-HO cell growth in a cell viability assay.

G-402 = assay: cells; assay type: functional, cell-based; details: Homo sapiens
Description: SANGER: Inhibition of human G-402 cell growth in a cell viability assay.

D-392MG = assay: cells; assay type: functional, cell-based; details: Homo sapiens
MHH-ES-1 = assay: cells; assay type: functional, cell-based; details: Homo sapiens
Description: SANGER: Inhibition of human MHH-ES-1 cell growth in a cell viability assay.

Raji = assay: cells; assay type: functional, cell-based, Homo sapiens; details: Homo sapiens, Raji;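 further: cell viability assay measuring inhibition of Raji cell growth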
Description: SANGER: Inhibition of human Raji cell growth in a cell viability assay.

NCI-H1693 = assay: cells; assay type: functional, cell-based; details: Homo sapiens;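 further: growth inhibition of the human cell line, read out with a cell viability assay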
Description: SANGER: Inhibition of human NCI-H1693 cell growth in a cell viability assay.

Capan-2 = assay: cells; assay type: functional, cell-based; details: Homo sapiens;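 further: Capan-2 cell growth inhibition, read out with a viability assay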
Description: SANGER: Inhibition of human Capan-2 cell growth in a cell viability assay.

HT55 = assay: cells; assay type: functional, cell-based; details: Homo sapiens;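 further: cell viability readout measuring growth inhibition of human HT55 cells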
Description: SANGER: Inhibition of human HT55 cell growth in a cell viability assay.

COLO-678 = assay: cells; assay type: functional, cell-based; details: Homo sapiens
Description: SANGER: Inhibition of human COLO-678 cell growth in a cell viability assay.

NCI-H748 = assay: cells; assay type: functional, cell-based, Homo sapiens; details: Homo sapiens, NCI-H748;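 further: growth inhibition of NCI-H748 cells, measured by a cell viability assay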
Description: SANGER: Inhibition of human NCI-H748 cell growth in a cell viability assay.

NCI-H716 = assay: cells; assay type: functional, cell-based, Homo sapiens; details: Homo sapiens, NCI-H716;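 further: growth inhibition of human NCI-H716 cells, measured by a cell viability assay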
Description: SANGER: Inhibition of human NCI-H716 cell growth in a cell viability assay.

JIYOYE = assay: cells; assay type: functional, cell-based, Homo sapiens; details: Homo sapiens, JIYOYE
Description: SANGER: Inhibition of human JiyoyeP-2003 cell growth in a cell viability assay.

ME-180 = assay: cells; assay type: functional, cell-based; details: Homo sapiens;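 further: cell viability assay measuring growth inhibition of ME-180 cells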
Description: SANGER: Inhibition of human ME-180 cell growth in a cell viability assay.

SK-MEL-24 = assay: cells; assay type: functional, cell-based; details: Homo sapiens;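 further: growth inhibition read out by a cell viability assay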
Description: SANGER: Inhibition of human SK-MEL-24 cell growth in a cell viability assay.

SJRH30 = assay: cells; assay type: functional, cell-based; details: Homo sapiens;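 further: growth inhibition of human SJRH30 cells, read out with a cell viability assay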
Description: SANGER: Inhibition of human SJRH30 cell growth in a cell viability assay.

HGC-27 = assay: cells; assay type: functional, cell-based; details: Homo sapiens;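 further: growth inhibition of human HGC-27 cells, read out in a cell viability assay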
Description: SANGER: Inhibition of human HGC-27 cell growth in a cell viability assay.

CPC-N = assay: cells; assay type: functional, cell-based, Homo sapiens; details: Homo sapiens, CPC-N;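 further: growth inhibition of CPC-N cells, with a cell viability assay as the readout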
Description: SANGER: Inhibition of human CPC-N cell growth in a cell viability assay.

U-698-M = assay: cells; assay type: functional, cell-based, Homo sapiens; details: Homo sapiens, U-698-M
Description: SANGER: Inhibition of human U-698-M cell growth in a cell viability assay.

AGS = assay: cells; assay type: functional, cell-based; details: Homo sapiens;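 further: growth inhibition of AGS cells, determined with a cell viability assay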
Description: SANGER: Inhibition of human AGS cell growth in a cell viability assay.

TCC-SUP = assay: cells; assay type: functional, cell-based; details: Homo sapiens;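 further: growth inhibition of TCC-SUP cells, read out with a cell viability assay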
Description: SANGER: Inhibition of human TCCSUP cell growth in a cell viability assay.

Cc1ccc(C(=O)Nc2ccc(CN3CCN(C)CC3)c(C(F)(F)F)c2)cc1C#Cc1cnc2cccnn12 [PONATINIB]
IC50 (SKG-IIIa): > 512 nM
IC50 (A-427): 273 nM
IC50 (A673): > 512 nM
IC50 (HTC-C3): > 512 nM
IC50 (OE33): > 512 nM
IC50 (HCT-116): 211 nM
IC50 (SN12C): > 512 nM
IC50 (DU-145): > 512 nM
IC50 (SW48): > 512 nM
IC50 (SW1783): > 512 nM
IC50 (RPMI-7951): > 512 nM
IC50 (SIG-M5): 134 nM
IC50 (KMOE-2): > 512 nM
IC50 (MKN-28): > 512 nM
IC50 (UO-31): > 512 nM
IC50 (Detroit 562): > 512 nM
IC50 (EFO-27): > 512 nM
IC50 (HSC-4): > 512 nM
IC50 (LN-405): > 512 nM
IC50 (RL95-2): > 512 nM
IC50 (ESS-1): 478 nM
IC50 (NCI-H510A): > 512 nM
IC50 (NCI-H596): > 512 nM
IC50 (KOSC-2): > 512 nM
IC50 (LOUCY): > 512 nM
IC50 (MDA-MB-453): > 512 nM
IC50 (IGR-1): > 512 nM
IC50 (LCLC-103H cell line): > 512 nM
IC50 (MFE-280): 315 nM
IC50 (MCF7): > 512 nM
IC50 (HN): > 512 nM
IC50 (LCLC-97TM1): 462 nM
IC50 (MHH-CALL-2): > 512 nM
IC50 (CWR22R): > 512 nM
IC50 (NCI-H2342): 186 nM
IC50 (23132-87): > 512 nM
IC50 (CESS): > 512 nM
IC50 (EGI-1): > 512 nM
IC50 (UACC-893): > 512 nM
IC50 (MEL-HO): > 512 nM
IC50 (G-402): 63.4 nM
IC50 (D-392MG): 232 nM
IC50 (MHH-ES-1): > 512 nM
IC50 (Raji): > 512 nM
IC50 (NCI-H1693): > 512 nM
IC50 (Capan-2): > 512 nM
IC50 (HT55): > 512 nM
IC50 (COLO-678): > 512 nM
IC50 (NCI-H748): > 512 nM
IC50 (NCI-H716): 163 nM
IC50 (JIYOYE): > 512 nM
IC50 (ME-180): > 512 nM
IC50 (SK-MEL-24): 398 nM
IC50 (SJRH30): > 512 nM
IC50 (HGC-27): 294 nM
IC50 (CPC-N): > 512 nM
IC50 (U-698-M): > 512 nM
IC50 (AGS): > 512 nM

O=S(=O)(O)c1ccc2cc(/N=N/c3cc(S(=O)(=O)O)c4cccnc4c3O)ccc2c1
IC50 (SKG-IIIa): > 16000 nM
IC50 (A-427): > 16000 nM
IC50 (A673): > 16000 nM
IC50 (HTC-C3): > 16000 nM
IC50 (OE33): > 16000 nM
IC50 (HCT-116): > 16000 nM
IC50 (SN12C): > 16000 nM
IC50 (DU-145): > 16000 nM
IC50 (SW48): > 16000 nM
IC50 (SW1783): > 16000 nM
IC50 (RPMI-7951): > 16000 nM
IC50 (SIG-M5): > 16000 nM
IC50 (KMOE-2): > 16000 nM
IC50 (MKN-28): > 16000 nM
IC50 (UO-31): 13600 nM
IC50 (Detroit 562): > 16000 nM
IC50 (EFO-27): > 16000 nM
IC50 (HSC-4): > 16000 nM
IC50 (LN-405): > 16000 nM
IC50 (RL95-2): > 16000 nM
IC50 (ESS-1): > 16000 nM
IC50 (NCI-H510A): > 16000 nM
IC50 (NCI-H596): > 16000 nM
IC50 (KOSC-2): > 16000 nM
IC50 (LOUCY): > 16000 nM
IC50 (MDA-MB-453): > 16000 nM
IC50 (IGR-1): > 16000 nM
IC50 (LCLC-103H cell line): > 16000 nM
IC50 (MFE-280): > 16000 nM
IC50 (MCF7): > 16000 nM
IC50 (HN): > 16000 nM
IC50 (LCLC-97TM1): > 16000 nM
IC50 (MHH-CALL-2): > 16000 nM
IC50 (CWR22R): > 16000 nM
IC50 (NCI-H2342): > 16000 nM
IC50 (23132-87): > 16000 nM
IC50 (CESS): > 16000 nM
IC50 (EGI-1): > 16000 nM
IC50 (UACC-893): > 16000 nM
IC50 (MEL-HO): > 16000 nM
IC50 (G-402): > 16000 nM
IC50 (D-392MG): > 16000 nM
IC50 (MHH-ES-1): > 16000 nM
IC50 (TCC-SUP): > 16000 nM
IC50 (Raji): > 16000 nM
IC50 (NCI-H1693): > 16000 nM
IC50 (Capan-2): > 16000 nM
IC50 (HT55): > 16000 nM
IC50 (COLO-678): > 16000 nM
IC50 (NCI-H748): > 16000 nM
IC50 (NCI-H716): > 16000 nM
IC50 (JIYOYE): > 16000 nM
IC50 (ME-180): > 16000 nM
IC50 (SK-MEL-24): > 16000 nM
IC50 (SJRH30): > 16000 nM
IC50 (HGC-27): > 16000 nM
IC50 (CPC-N): > 16000 nM
IC50 (U-698-M): > 16000 nM
IC50 (AGS): > 16000 nM

COC(=O)[C@H](CCSC)NC(=O)c1ccc(NC[C@@H](N)CS)cc1-c1ccccc1
IC50 (SKG-IIIa): > 1020 nM
IC50 (A-427): > 1020 nM
IC50 (A673): > 1020 nM
IC50 (HTC-C3): > 1020 nM
IC50 (OE33): > 1020 nM
IC50 (HCT-116): > 1020 nM
IC50 (SN12C): > 1020 nM
IC50 (DU-145): > 1020 nM
IC50 (SW48): > 1020 nM
IC50 (SW1783): > 1020 nM
IC50 (RPMI-7951): > 1020 nM
IC50 (SIG-M5): > 1020 nM
IC50 (KMOE-2): > 1020 nM
IC50 (MKN-28): > 1020 nM
IC50 (UO-31): > 1020 nM
IC50 (Detroit 562): > 1020 nM
IC50 (EFO-27): > 1020 nM
IC50 (HSC-4): > 1020 nM
IC50 (LN-405): > 1020 nM
IC50 (RL95-2): > 1020 nM
IC50 (ESS-1): > 1020 nM
IC50 (NCI-H510A): > 1020 nM
IC50 (NCI-H596): > 1020 nM
IC50 (KOSC-2): > 1020 nM
IC50 (LOUCY): > 1020 nM
IC50 (MDA-MB-453): > 1020 nM
IC50 (IGR-1): > 1020 nM
IC50 (LCLC-103H cell line): > 1020 nM
IC50 (MFE-280): > 1020 nM
IC50 (MCF7): > 1020 nM
IC50 (HN): > 1020 nM
IC50 (LCLC-97TM1): > 1020 nM
IC50 (MHH-CALL-2): > 1020 nM
IC50 (CWR22R): > 1020 nM
IC50 (NCI-H2342): > 1020 nM
IC50 (23132-87): > 1020 nM
IC50 (CESS): > 1020 nM
IC50 (EGI-1): > 1020 nM
IC50 (UACC-893): > 1020 nM
IC50 (MEL-HO): > 1020 nM
IC50 (G-402): > 1020 nM
IC50 (D-392MG): > 1020 nM
IC50 (MHH-ES-1): > 1020 nM
IC50 (TCC-SUP): > 1020 nM
IC50 (Raji): > 1020 nM
IC50 (NCI-H1693): > 1020 nM
IC50 (Capan-2): > 1020 nM
IC50 (HT55): > 1020 nM
IC50 (COLO-678): > 1020 nM
IC50 (NCI-H748): > 1020 nM
IC50 (NCI-H716): > 1020 nM
IC50 (JIYOYE): > 1020 nM
IC50 (ME-180): > 1020 nM
IC50 (SK-MEL-24): > 1020 nM
IC50 (SJRH30): > 1020 nM
IC50 (HGC-27): > 1020 nM
IC50 (CPC-N): > 1020 nM
IC50 (U-698-M): > 1020 nM
IC50 (AGS): > 1020 nM
